Assay results as given in US5661156A, “Rapamycin derivatives” (SmithKline Beecham Corporation, priority 1995, dated 1997).

Columns and labels:
[1] = tested on: Spleen cells from BDF1 female mice; assay: Mitogenesis Assay for Immunosuppressive Activity (concanavalin A, 3H-thymidine); format: cell-based; conditions: BDF1 mouse spleen cells, Concanavalin A 5 μg/ml, 72 hours, 3H-thimidine last 18 hours
Experimental: (§1) Mitogenesis Assay for Immunosuppressive Activity
Spleen cells from BDF1 female mice were established in RPMI with 10% fetal calf serum at 5×10^6 /mL. One hundred […] of this suspension (5×10^5 cells) were dispensed into 96-well round-bottomed microtiter plates (Linbro, Flow Laboratories). Concanavalin A (5 μg/ml)was added as the mitogenic stimulus, and the final volume in the microtiter wells was adjusted to 200 μL with RPMI. Cell cultures were incubated for 72 hours at 37° C. in a 5% CO2 atmosphere and pulsed with 0.5 μCi ^3 H-thymidine (specific activity […]) for the last 18 hours of the 72 hour culture. The cells were harvested on an automated multiple sample harvester and cell-associated radioactivity counted in a Beckman liquid scintillation counter. The results are expressed as the mean values derived from quadruplicate measurements. Cell viability was determined by trypan blue exclusion after 72 hours of incubation. Compounds to be tested were added to the microtiter plates at the appropriate dilutions prior to the addition of cells.

[2] = tested on: Saccharomyces cerevisiae; assay: Assay for Antifungal Activity (zones of inhibition on agar); format: cell-based; conditions: YPD agar wells, 48 hours
Experimental: Assay for Antifungal Activity
Yeast organism (Saccharomyces cerevisiae) in logarithmic growth were plated on complete agar medium (YPD). Compounds dissolved in an appropriate aqueous or organic solvent were placed in wells punched in the agar. Plates were incubated for 48 hours and zones of inhibition were measured.
as §1

Compound	IC50 [1]	Yeast IC12 [2]
14-Desoxo-13-Methoxy-Rapamycin	1 µM	52 ng/mL
CO[C@H]1CCC[C@@H](C[C@@H](C)[C@@H]2CC(=O)[C@H](C)/C=C(\C)[C@@H](O)[C@@H](OC)C(=O)[C@H](C)C[C@H](C)/C=C/C=C/C=C(\C)[C@@H](OC)C[C@@H]3CC[C@@H](C)[C@@](O)(O3)C(=O)C(=O)N3CCCC[C@H]3C(=O)O2)C1 [Example 1, 43-Deshydroxyrapamycin]	0.0005 µM	–
CO[C@H]1C[C@@H]2CC[C@@H](C)[C@](O)(CC(=O)N3CCCC[C@H]3C(=O)O[C@H]([C@H](C)C[C@@H]3CC[C@@H](O)[C@H](OC)C3)CC(=O)[C@H](C)/C=C(\C)[C@@H](O)[C@@H](OC)C(=O)[C@H](C)C[C@H](C)/C=C/C=C/C=C/1C)O2 [Example 3, 14-Deoxorapamycin]	0.015 µM	–
